According to the supplement of paper PMC10307832:

What was measured:
Experiment in all cases: relative viability (nuclei count vs DMSO), 5 days (fraction); higher = more cells survive
[1] = compound: CC(C)C[C@H](NC(=O)[C@H](Cc1ccccc1)NC(=O)c1cnccn1)B(O)O [Bortezomib] + CCNC(=O)c1noc(-c2cc(C(C)C)c(O)cc2O)c1-c1ccc(CN2CCOCC2)cc1 [Luminespib] (partner 0.01 µM)
Summary of the method: (§1)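 Lung cancer cell lines in 1536-well plates were dosed by pin tool the day after seeding, either with one drug alone or with a fixed anchor-drug dose plus five library-drug doses (not always all listed) in √10 steps. After 5 days, cells were fixed and their nuclei stained in one step (final 0.05% Triton X-100, 1% formaldehyde, 1 ug/ml Hoechst), then counted on 4× images. Relative viability is the nuclei count in treated wells divided by that in vehicle wells. Values are medians of duplicate plates.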

[2] = compound: CC(C)C[C@H](NC(=O)[C@H](Cc1ccccc1)NC(=O)c1cnccn1)B(O)O [Bortezomib] + NC(=O)Nc1cc(-c2cccc(F)c2)sc1C(=O)N[C@H]1CCCNC1 [AZD7762] (partner 0.2 µM)
Summary of the method: as §1

[3] = compound: CC1=CC(=NN1)NC2=CC(=NC(=N2)/C=C/C3=CC=CC=C3)N4CCN(CC4)C + NC(=O)Nc1cc(-c2cccc(F)c2)sc1C(=O)N[C@H]1CCCNC1 [AZD7762] (partner 0.2 µM)
Summary of the method: as §1

[4] = compound: COC1=CC(c2cc3ccccc3[nH]2)=N/C1=C\c1[nH]c(C)cc1C [Obatoclax] + Nc1nc2[nH]cc(CCc3ccc(C(=O)N[C@@H](CCC(=O)O)C(=O)O)cc3)c2c(=O)[nH]1 [Pemetrexed] (partner 0.2 µM)
Summary of the method: as §1

Row | Cell Line | relative viability ([1]; first compound 0.0002 µM) | relative viability ([1]; first compound 0.000632 µM) | relative viability ([1]; first compound 0.002 µM) | relative viability ([1]; first compound 0.006325 µM) | relative viability ([1]; first compound 0.02 µM) | relative viability ([2]; first compound 0.0002 µM) | relative viability ([2]; first compound 0.000632 µM) | relative viability ([2]; first compound 0.002 µM) | relative viability ([2]; first compound 0.006325 µM) | relative viability ([2]; first compound 0.02 µM) | relative viability ([3]; first compound 0.08 µM) | relative viability ([3]; first compound 0.253 µM) | relative viability ([3]; first compound 0.8 µM) | relative viability ([3]; first compound 2.53 µM) | relative viability ([3]; first compound 8 µM) | relative viability ([4]; first compound 0.01 µM) | relative viability ([4]; first compound 0.03162 µM) | relative viability ([4]; first compound 0.1 µM) | relative viability ([4]; first compound 0.3162 µM) | relative viability ([4]; first compound 1 µM)
1 | CAL-12T | 0.121 | 0.447 | 0.412 | 0.599 | 0.105 | 0.608 | 0.596 | 0.602 | 0.576 | 0.271 | 0.626 | 0.655 | 0.647 | 0.319 | 0.152 | 1.04 | 1.16 | 1.13 | 0.896 | 0.149
2 | ChaGo-K-1 | 0.577 | 0.554 | 0.683 | 0.356 | 0.169 | 0.847 | 0.716 | 0.886 | 0.691 | 0.164 | 0.823 | 0.935 | 0.824 | 0.439 | 0.241 | 0.243 | 0.252 | 0.261 | 0.265 | 0.274
3 | EKVX | 0.833 | 0.827 | 0.89 | 0.646 | 0.113 | 0.72 | 0.741 | 0.845 | 0.286 | 0.0785 | 0.649 | 0.667 | 0.753 | 0.413 | 0.122 | 0.397 | – | 0.358 | 0.372 | 0.436
4 | EMC-BAC-2 | 1.21 | 1.11 | 1.17 | 0.441 | 0.208 | 1.09 | 1.04 | 1.04 | 0.573 | 0.436 | 1.11 | 1.22 | 1.1 | 0.654 | 0.354 | 0.42 | 0.47 | 0.395 | 0.452 | 0.419
5 | EPLC-272H | 0.36 | 0.143 | 0.217 | 0.148 | 0.115 | 0.188 | 0.163 | 1.2 | 0.153 | 0.0636 | 0.17 | 0.209 | 0.196 | 0.116 | 0.0909 | 0.324 | 0.387 | 0.422 | 0.327 | 0.263
6 | H3255 | 0.765 | 0.856 | 1.02 | 0.386 | 0.271 | 0.867 | – | 0.655 | 0.517 | 0.328 | 0.866 | 0.935 | 0.955 | 0.782 | 0.374 | 0.54 | 0.51 | 0.498 | 0.471 | 0.597
7 | HARA | 0.718 | 0.77 | 0.607 | 0.0345 | 0.0465 | 0.257 | 0.311 | 0.577 | 0.178 | 0.0909 | 0.386 | 0.351 | 0.412 | 0.193 | 0.154 | 0.236 | 0.293 | 0.249 | 0.262 | 0.303
8 | HCC-15 | 0.322 | 0.343 | 0.405 | 0.0965 | 0.0909 | 1.04 | 1.14 | 1.17 | 0.763 | 0.127 | 1.1 | 1.46 | 1.25 | 0.875 | 0.34 | 0.215 | 0.234 | 0.215 | 0.225 | 0.228
9 | HCC-44 | 0.983 | 0.984 | 0.585 | 0.187 | 0.197 | 0.959 | 0.985 | 1.01 | 1.04 | 0.239 | 1.02 | 1.03 | 1.01 | 1.01 | 0.844 | 0.64 | 0.648 | 0.589 | 0.627 | 0.652
10 | HCC-827 | 0.533 | 0.588 | 0.415 | 0.152 | 0.122 | 0.267 | 0.259 | 0.18 | 0.215 | 0.199 | 0.188 | 0.199 | 0.217 | 0.197 | 0.0973 | 0.241 | 0.275 | 0.247 | 0.17 | 0.278
11 | HOP-62 | 0.921 | 0.907 | 0.67 | 0.288 | 0.0887 | 0.603 | 0.387 | 0.51 | 0.25 | 0.043 | 0.673 | 0.615 | 0.778 | 0.385 | 0.159 | 0.279 | 0.377 | 0.329 | 0.424 | 0.358
12 | LC-2-ad | 0.972 | 1.06 | 0.64 | 0.226 | 0.214 | 0.828 | 0.787 | 0.878 | 0.271 | 0.182 | 0.778 | 0.928 | 0.676 | 0.16 | 0.12 | 0.268 | 0.285 | 0.261 | 0.264 | 0.285
13 | LCLC-97TM1 | 0.674 | 0.756 | 0.687 | 0.123 | 0.139 | 0.179 | – | 0.32 | 0.234 | 0.0966 | 0.177 | 0.251 | 0.236 | 0.139 | 0.0567 | 0.171 | 0.188 | 0.18 | 0.178 | 0.161
14 | LCLC-103H | 0.902 | 0.955 | 0.495 | 0.175 | 0.152 | 0.816 | 0.769 | 0.764 | 0.748 | 0.201 | 0.746 | 0.807 | 0.775 | 0.723 | 0.576 | 0.461 | 0.487 | 0.379 | 0.519 | 0.528
15 | LK-2 | 0.182 | 0.186 | 0.238 | 0.182 | 0.172 | 0.335 | 0.387 | 0.533 | 0.449 | 0.0966 | 0.245 | 0.364 | 0.323 | 0.0834 | 0.0556 | 0.273 | 0.227 | 0.248 | – | 0.317
16 | LOU-NH91 | 0.352 | 0.312 | 0.279 | 0.252 | 0.231 | 0.729 | 0.68 | 0.361 | 0.348 | 0.339 | 0.782 | 0.834 | 0.733 | 0.518 | 0.336 | 0.334 | 0.382 | 0.323 | 0.379 | 0.47
